EC50 data for 15 compounds are collected here from patent US20260102387A1, “IMMUNOSUPPRESSIVE COMPOUNDS” (UNIVERSITÄT BASEL, priority 2022, published 2026).

Read-outs that look alike come from different tables or passages of the source.

The subject of one assay is RBL cells. Nature of the assay: Cell viability by live-dead staining (cytotoxicity), flow cytometry. To be noted: cell viability via live/dead staining, 48-65 h, read-out: EC50 Toxicity. The assay is classed as cell-based, Rat. The protocol:
(§1) RBL cells expressing GFP under coronin 1 promoter and optionally with RBL cells expressing RFP under CMV promoter were mixed in equal numbers and incubated with the compounds at indicated concentrations for 48-65 h and analyzed by flow cytometry for alteration in coronin 1 promoter (GFP fluorescence), CMV promoter (RFP fluorescence) values. In addition, the cells were labelled with live-dead marker for assessing cell viability status by flow cytometry. Cycloheximide (CHX) serves as positive control and DMSO serves as negative controls. Effective Concentration (EC50) values for coronin 1 promoter inhibition via GFP fluorescence analysis, non-specific promoter inhibition via CMV promoter driven-RFP fluorescence analysis and cell viability via live/dead staining as a measure for toxicity in flow cytometry for compounds (10-22 and 50a-65a) are shown in Table 6 and Table 7. Based on the EC50 analysis of the inhibition of coronin 1 promoter driven GFP fluorescence the (4S,7R)-configurated eutomers were identified (Structures FIG. 9A-C). This is exemplified for compounds containing two stereocenters by eutomers 11c and 13a. […] Subsequent EC50 evaluations (Table 7) were performed with compound 13a as standard for relative potency normalized to a value of 1.00 (relative potency calculated as [EC50 GFP inhibition 13a]/[EC50 GFP inhibition compound of interest]).

Another assay deals with coronin 1 promoter. Nature of the assay: EC50 analysis for coronin 1 promoter driven GFP inhibition by flow cytometry in RBL cells. The assay is classed as cell-based. To be noted: RBL cells, 48-65 h, flow cytometry. The protocol: RBL cells that had been incubated with the indicated calcium channel blockers (amlodipine (3.125 μM) and verapamil (8 μM) concentrations for 48 h were analyzed by flow cytometry for any alteration in coronin 1 promoter driven GFP fluorescence. The results reveal no effect of calcium channel blockers on coronin 1 promoter activity (FIG. 4).
as §1

On to `COC(=O)C1=C(C)NC2=C(C(=O)C[C@H](c3ccccc3OC)C2)[C@H]1c1cccc(O)c1` (stereo in doubt) [11b, methyl-4-(3-hydroxyphenyl)-7-(2-methoxyphenyl)-2-methyl-5-oxo-1,4,5,6,7,8-hexahydro-3-quinolinecarboxylate], for which the concentration for a half-maximal effect (EC50) in the assay on RBL cells (Rattus norvegicus, RBL) is greater than 36 µM; in the assay with coronin 1 promoter (RBL) it was greater than 36 µM.
Turning to `COc1ccccc1[C@H]1CC(=O)C2=C(C1)NC(C)=C(C(=O)OCC1CCCO1)[C@H]2c1cccc(O)c1` (stereo in doubt) [12a, tetrahydro-2-furanylmethyl-4-(3-hydroxyphenyl)-7-(2-methoxyphenyl)-2-methyl-5-oxo-1,4,5,6,7,8-hexahydro-3-quinolinecarboxylate], the EC50 is greater than 30 µM in the assay with RBL cells (Rattus norvegicus, RBL) and 0.2 µM in the assay on coronin 1 promoter (RBL).
The matching figures for `COC(=O)C1=C(C)NC2=C(C(=O)CC(c3ccccc3OC)C2)C1c1ccccc1O` (stereo not drawn) [compound 16, methyl 4-(2-hydroxyphenyl)-7-(2-methoxyphenyl)-2-methyl-5-oxo-1,4,5,6,7,8-hexahydroquinoline-3-carboxylate]: greater than 7.5 µM and 0.9 µM.
The matching figures for `COc1ccccc1C1CC(=O)C2=C(C1)NC(C)=C(C(=O)OCC1CC(C)(C)OC(C)(C)C1)C2c1cccc(O)c1` (stereo not drawn) [compound 19, (2,2,6,6-tetramethyltetrahydro-2H-pyran-4-yl)methyl 4-(3-hydroxyphenyl)-7-(2-methoxyphenyl)-2-methyl-5-oxo-1,4,5,6,7,8-hexahydroquinoline-3-carboxylate]: greater than 2.5 µM and 0.16 µM.
For `COc1ccccc1[C@@H]1CC(=O)C2=C(C1)NC(C)=C(C(=O)OC[C@@H]1CCCO1)[C@@H]2c1cccc(O)c1` [12f, tetrahydro-2-furanylmethyl-4-(3-hydroxyphenyl)-7-(2-methoxyphenyl)-2-methyl-5-oxo-1,4,5,6,7,8-hexahydro-3-quinolinecarboxylate] the same measures were greater than 2 µM and 2.5 µM.
As to `COC(=O)C1=C(C)NC2=C(C(=O)CC(c3ccccc3OC)C2)C1c1cccc(OC)c1` (stereo not drawn) [compound 15, methyl 7-(2-methoxyphenyl)-4-(3-methoxyphenyl)-2-methyl-5-oxo-1,4,5,6,7,8-hexahydroquinoline-3-carboxylate], the EC50 was greater than 15 µM in the assay with RBL cells (Rattus norvegicus, RBL) and 1.2 µM with coronin 1 promoter (RBL).
For `COCCCCOC(=O)C1=C(C)NC2=C(C(=O)CC(c3ccccc3OC)C2)C1c1cccc(O)c1` (stereo not drawn) [compound 17, 4-methoxybutyl 4-(3-hydroxyphenyl)-7-(2-methoxyphenyl)-2-methyl-5-oxo-1,4,5,6,7,8-hexahydroquinoline-3-carboxylate] the same measures were greater than 5 µM and 0.1 µM.
`COC(=O)C1=C(C)NC2=C(C(=O)CC(c3ccccc3OC)C2)C1c1ccccc1` (stereo not drawn) [compound 14, methyl 7-(2-methoxyphenyl)-2-methyl-5-oxo-4-phenyl-1,4,5,6,7,8-hexahydroquinoline-3-carboxylate]: the EC50 with RBL cells (Rattus norvegicus, RBL) was greater than 6 µM; with coronin 1 promoter (RBL) it was 0.25 µM.
For `COc1ccccc1[C@H]1CC(=O)C2=C(C1)NC(C)=C(C(=O)OCC1CCCO1)[C@@H]2c1cccc(O)c1` (stereo in doubt) [12b, tetrahydro-2-furanylmethyl-4-(3-hydroxyphenyl)-7-(2-methoxyphenyl)-2-methyl-5-oxo-1,4,5,6,7,8-hexahydro-3-quinolinecarboxylate] the same measures were greater than 30 µM and greater than 30 µM.
Turning to `COc1ccccc1C1CC(=O)C2=C(C1)NC(C)=C(C(=O)OC(C)(C)C)C2c1cccc(O)c1` (stereo not drawn) [compound 21, tert-butyl 4-(3-hydroxyphenyl)-7-(2-methoxyphenyl)-2-methyl-5-oxo-1,4,5,6,7,8-hexahydroquinoline-3-carboxylate], the EC50 is greater than 2.5 µM in the assay with RBL cells (Rattus norvegicus, RBL) and 0.28 µM with coronin 1 promoter (RBL).
The matching figures for `COC(=O)C1=C(C)NC2=C(C(=O)C[C@@H](c3ccccc3OC)C2)[C@H]1c1cccc(O)c1` [11d, methyl-4-(3-hydroxyphenyl)-7-(2-methoxyphenyl)-2-methyl-5-oxo-1,4,5,6,7,8-hexahydro-3-quinolinecarboxylate]: greater than 18 µM and 2 µM.
For `COc1ccccc1C1CC(=O)C2=C(C1)NC(C)=C(C(=O)OC1COC1)C2c1cccc(O)c1` (stereo not drawn) [compound 20, oxetan-3-yl 4-(3-hydroxyphenyl)-7-(2-methoxyphenyl)-2-methyl-5-oxo-1,4,5,6,7,8-hexahydroquinoline-3-carboxylate] the same measures were greater than 2.5 µM and 0.5 µM.
For `COc1ccccc1[C@H]1CC(=O)C2=C(C1)NC(C)=C(C(=O)OC[C@@H]1CCCO1)[C@H]2c1cccc(O)c1` (racemic) [12c, tetrahydro-2-furanylmethyl-4-(3-hydroxyphenyl)-7-(2-methoxyphenyl)-2-methyl-5-oxo-1,4,5,6,7,8-hexahydro-3-quinolinecarboxylate], the EC50 is greater than 4 µM with RBL cells (Rattus norvegicus, RBL) and 0.2 µM in the assay on coronin 1 promoter (RBL).
In the case of `COC(=O)C1=C(C)NC2=C(C(=O)C[C@H](c3ccccc3OC)C2)[C@@H]1c1cccc(O)c1` [11c, methyl (4S, 7R)-4-(3-hydroxyphenyl)-7-(2-methoxyphenyl)-2-methyl-5-oxo-1,4,5,6,7,8-hexahydro-3-quinolinecarboxylate], the concentration for a half-maximal effect (EC50) in the assay on RBL cells is greater than 9 µM; in the assay with coronin 1 promoter, 0.175 µM.
Take `COC(=O)C1=C(C)NC2=C(C(=O)C[C@H](c3ccccc3OC)C2)[C@@H]1c1cccc(O)c1` (stereo in doubt) [11a, methyl-4-(3-hydroxyphenyl)-7-(2-methoxyphenyl)-2-methyl-5-oxo-1,4,5,6,7,8-hexahydro-3-quinolinecarboxylate]: the concentration for a half-maximal effect (EC50) with RBL cells (Rattus norvegicus, RBL) is greater than 9 µM; with coronin 1 promoter it was 0.5 µM.
